# Assay results from article PMC9140068, “Generation of HepG2 Cells with High Expression of Multiple Drug-Metabolizing Enzymes for Drug Discovery Research Using a PITCh System” (Cells, 2022).
# How the values were obtained:
# WT-HepG2 cells = assay: Propranolol metabolite formation in WT-HepG2 cells (HPLC); assay type: in vitro ADME, human; settings: 1 μM propranolol, 360 min
# Text: Figure 5 Major metabolites of propranolol formed by the CYPs–UGT1A1 KI-HepG2 cells. […] Data are means ± SD of three technical replicates. N.D., not detected.
# [1] = tested on: CYPs–UGT1A1 KI-HepG2 cells
# Method: The HepG2 cells were seeded in 96-well plates at 1.0 × 10^4 cells/well. […] After 24 h, to examine the cell viability, we performed a WST-8 (2-(2-methoxy-4-nitrophenyl)-3-(4-nitrophenyl)-5-(2,4-disulfophenyl)-2H-tetrazolium, monosodium salt) assay by using Cell Count Reagent SF according to the manufacturer’s instructions. The cell viability was calculated as the percentage of that in the cells treated with a vehicle only.
# After 24 h, cell viability was examined by WST-8 assay. The cell viability was calculated as a percentage of the number of cells after treatment with a solvent only. The results shown are means ± SD of three technical replicates.
# [2] = tested on: CYPs–UGT1A1 KI-HepG2 cells; assay: Propranolol metabolite formation in CYPs–UGT1A1 KI-HepG2 cells (HPLC); assay type: in vitro ADME, human; settings: 1 μM propranolol, 360 min
# CYP2C9 = CYP2C9 (Homo sapiens, UniProt P11712)
# Method: (§1) The cells were cultured on 48-well plates, then washed with pH 7.4 HBSS containing 10 mM HEPES and 25 mM glucose. […] After preincubation, HBSS containing 10 μM phenacetin, 10 μM diclofenac, 50 μM S-mephenytoin, 1 μM bufuralol, 10 μM midazolam, 10 μM 7′-hydroxy coumarin, or 1 μM propranolol was added, and the cells were incubated at 37 ℃ for 360 min. […] The samples were collected from the supernatant, then immediately mixed with the same volume of acetonitrile. The mixed solutions were centrifuged for 5 min at 15,000× g. […] HPLC analysis was performed using a LO-20AD SPD + RF (DGU-20A, LC-20AD, RF-20A xs, SIL-20AC, CBM-20A, SPD-20A, CTO-20AC; Shimadzu). The concentrations of each metabolite were calculated according to the respective standard followed by normalization to the protein content per well.
# (§2) A value of p < 0.05 was considered statistically significant. Using the SigmaPlot v.
# (§3) The quantity of metabolites (4′-hydroxy diclofenac, 1′-hydroxy bufuralol, and 1′-hydroxy midazolam; these compounds are metabolites for CYP2C9, 2D6, and 3A4, respectively) were measured by HPLC. Data represent the means ± SD (n = 3, technical replicates). Statistical analyses were performed using the unpaired two-tailed Student’s t test (** p < 0.01). […]
# CYP2D6 = target: T1, CYP2D6 (Homo sapiens, UniProt P10635); assay: CYP2D6 inhibition in CYPs–UGT1A1 KI-HepG2 cells (1′-hydroxy bufuralol formation, HPLC); assay type: in vitro ADME
# T1 construct: P2A self-cleaving peptide (upstream linker from CYP2C9) (N); T2A self-cleaving peptide (linker to HygR) (C); expressed in transfected cells
# Method: as §1, §2, §3
# T1 sequence (P10635 whole entry): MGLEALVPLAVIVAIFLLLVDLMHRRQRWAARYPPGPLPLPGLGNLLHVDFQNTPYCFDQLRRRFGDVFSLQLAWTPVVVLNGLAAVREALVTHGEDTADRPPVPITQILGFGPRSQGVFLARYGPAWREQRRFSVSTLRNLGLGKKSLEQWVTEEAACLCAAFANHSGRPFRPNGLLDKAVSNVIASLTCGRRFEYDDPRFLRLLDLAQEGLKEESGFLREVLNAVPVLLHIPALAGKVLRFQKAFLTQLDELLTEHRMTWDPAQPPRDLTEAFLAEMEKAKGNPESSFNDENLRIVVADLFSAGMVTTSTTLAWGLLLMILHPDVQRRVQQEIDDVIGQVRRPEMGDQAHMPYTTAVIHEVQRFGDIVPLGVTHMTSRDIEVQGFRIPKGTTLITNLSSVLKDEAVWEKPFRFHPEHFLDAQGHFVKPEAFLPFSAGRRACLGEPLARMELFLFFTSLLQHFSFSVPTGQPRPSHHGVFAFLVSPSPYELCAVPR
# CYP2C9, sequence (P11712 whole entry): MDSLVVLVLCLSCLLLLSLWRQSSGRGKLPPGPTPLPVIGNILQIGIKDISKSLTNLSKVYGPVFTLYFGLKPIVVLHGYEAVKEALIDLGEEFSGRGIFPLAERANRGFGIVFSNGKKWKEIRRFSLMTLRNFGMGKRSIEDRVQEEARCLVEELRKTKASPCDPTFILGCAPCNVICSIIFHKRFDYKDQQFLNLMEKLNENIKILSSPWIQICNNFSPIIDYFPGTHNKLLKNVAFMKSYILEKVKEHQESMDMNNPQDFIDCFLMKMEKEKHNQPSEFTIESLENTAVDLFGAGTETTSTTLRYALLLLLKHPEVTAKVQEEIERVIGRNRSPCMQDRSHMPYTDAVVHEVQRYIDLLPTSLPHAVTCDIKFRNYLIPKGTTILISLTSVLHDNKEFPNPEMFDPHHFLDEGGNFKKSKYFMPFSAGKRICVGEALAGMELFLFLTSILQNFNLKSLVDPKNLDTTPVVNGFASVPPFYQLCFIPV
Metabolite of propranolol formed (detection by HPLC) (WT-HepG2 cells),SMILES,Cell viability of CYPs–UGT1A1 KI-HepG2 cells compared with WT-HepG2 cells [1],also measured
undetectable,CC(C)NCC(O)COc1ccc(O)c2ccccc12 (centres unmarked) [4′-hydroxy propranolol],,
undetectable,CC(C)NCC(O)COc1cccc2c(O)cccc12 (centres unmarked) [5′-hydroxy propranolol],,
,CC(=O)Nc1ccc(O)cc1 [acetaminophen],lower,
,CCc1oc2ccccc2c1C(=O)c1cc(Br)c(O)c(Br)c1 [benzbromarone],lower,
undetectable,NCC(O)COc1cccc2ccccc12 (centres unmarked) [desisopropylpropranolol],,Metabolite of propranolol formed (detection by HPLC) [2]: present at detectable levels
,CN(C)CCCN1c2ccccc2CCc2ccccc21 [imipramine],lower,
,Nc1ccc(S(=O)(=O)Nc2ccnn2-c2ccccc2)cc1 [sulfaphenazole],,CYP2C9 activity in the presence of the inhibitor (CYP2C9): significantly decreased
,CN(C/C=C/C#CC(C)(C)C)Cc1cccc2ccccc12 [terbinafine],,"CYP2D6 activity in the presence of the inhibitor (CYP2D6; 10 μM inhibitor, 1 μM bufuralol, p < 0.01): significantly decreased; IC50 (CYP2D6; substrate 1 μM bufuralol, inhibitor 0.03-10 μM, 30 min preincubation, 360 min incubation): 63.5 nM"
,Cc1c(C)c2c(c(C)c1O)CCC(C)(COc1ccc(CC3SC(=O)NC3=O)cc1)O2 (centres unmarked) [troglitazone],lower,
